Measurements published in EP2446893A1 (priority 2010, dated 2012).
Like-named read-outs stand apart in the source and are kept apart here. Starred links: 1 amine or outer side, 2 acyl side, 3 side chain; linkers in the order of their positions; H or OH if unused. Non-standard residues stand in square brackets, D forms with d. Residues, ends and D or L forms follow the SMILES beside them. No end group written: not given here. ξ: configuration not given here. X1 = O=C(C(Cc1ccc(O)cc1)N=CC(Cc1ccc(O)cc1)N[*:1])[*:2]; Pro(4S-Me) = C[C@@H]1CN[C@H](C(=O)O)C1; d(hSer) = N[C@H](CCO)C(=O)O; ξY = NC(Cc1ccc(O)cc1)C(=O)O

How the values were obtained:
primary rat hepatocytes [1] = assay: hepatocyte toxicity / long-term viability (microscopy, WST-1); assay type: cell-based; settings: for inherent toxicity (morphology, growth, mitochondrial dehydrogenase activity of hepatocytes): hepatocytes incubated for 96 hours; for toxicity for primary rat hepatocytes: not shown
Description: (§1) Rat hepatocytes were isolated by in vitro collagenase perfusion, Mellgren G, et al., Journal of Cellular Physiology 1995;163:232-240. Experimental conditions were as described in Herfindal L, et al., J Med Chem 2009;52:5758-5762, except for assay of NaN3 and general cytotoxicity, where the hepatocytes were seeded in collage-coated 24-well culture dishes. Microinjection of hepatocytes was as described previously, Fladmark KE, et al., Hepatology 1997;25:847-855. The hepatocyte death (by apoptosis or necrosis) was evaluated by microscopy. Long-term hepatocyte viability was assessed also by the WST-1 colorimetric assay of mitochondrial dehydrogenase activity (Roche Applied Sciences, Mannheim, Germany).

CaM-KII = assay type: biochemical
Oatp1b2 [2] = molecular target: T1, Oatp1b2 (Rattus norvegicus, UniProt Q9QZX8)
T1 sequence (Q9QZX8 1-687): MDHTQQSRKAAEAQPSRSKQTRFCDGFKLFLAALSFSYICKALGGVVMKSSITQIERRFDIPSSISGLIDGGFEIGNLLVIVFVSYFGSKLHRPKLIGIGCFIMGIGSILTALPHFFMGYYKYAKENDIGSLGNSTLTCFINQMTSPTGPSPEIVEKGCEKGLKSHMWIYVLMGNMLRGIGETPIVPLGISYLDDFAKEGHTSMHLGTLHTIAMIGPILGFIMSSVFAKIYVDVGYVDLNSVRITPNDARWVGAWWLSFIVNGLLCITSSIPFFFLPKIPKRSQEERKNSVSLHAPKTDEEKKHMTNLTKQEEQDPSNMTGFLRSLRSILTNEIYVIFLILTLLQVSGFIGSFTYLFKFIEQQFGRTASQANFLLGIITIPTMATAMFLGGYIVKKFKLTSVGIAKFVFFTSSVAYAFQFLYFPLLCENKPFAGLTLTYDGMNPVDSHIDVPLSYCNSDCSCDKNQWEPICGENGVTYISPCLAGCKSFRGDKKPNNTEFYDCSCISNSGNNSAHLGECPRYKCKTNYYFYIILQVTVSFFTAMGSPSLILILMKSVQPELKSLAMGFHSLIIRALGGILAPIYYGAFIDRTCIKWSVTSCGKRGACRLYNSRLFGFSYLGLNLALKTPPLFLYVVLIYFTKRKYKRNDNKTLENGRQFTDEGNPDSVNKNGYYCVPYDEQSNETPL

OATP1B3 [3] = molecular target: T2, OATP1B3 (Homo sapiens, UniProt Q9NPD5)
[4] = stability on storage and in solution; assay type: physicochemical
OATP1B1 [5] = molecular target: T3, OATP1B1 (Homo sapiens, UniProt Q9Y6L6)
Target sequence in this assay (Q9Y6L6 whole entry): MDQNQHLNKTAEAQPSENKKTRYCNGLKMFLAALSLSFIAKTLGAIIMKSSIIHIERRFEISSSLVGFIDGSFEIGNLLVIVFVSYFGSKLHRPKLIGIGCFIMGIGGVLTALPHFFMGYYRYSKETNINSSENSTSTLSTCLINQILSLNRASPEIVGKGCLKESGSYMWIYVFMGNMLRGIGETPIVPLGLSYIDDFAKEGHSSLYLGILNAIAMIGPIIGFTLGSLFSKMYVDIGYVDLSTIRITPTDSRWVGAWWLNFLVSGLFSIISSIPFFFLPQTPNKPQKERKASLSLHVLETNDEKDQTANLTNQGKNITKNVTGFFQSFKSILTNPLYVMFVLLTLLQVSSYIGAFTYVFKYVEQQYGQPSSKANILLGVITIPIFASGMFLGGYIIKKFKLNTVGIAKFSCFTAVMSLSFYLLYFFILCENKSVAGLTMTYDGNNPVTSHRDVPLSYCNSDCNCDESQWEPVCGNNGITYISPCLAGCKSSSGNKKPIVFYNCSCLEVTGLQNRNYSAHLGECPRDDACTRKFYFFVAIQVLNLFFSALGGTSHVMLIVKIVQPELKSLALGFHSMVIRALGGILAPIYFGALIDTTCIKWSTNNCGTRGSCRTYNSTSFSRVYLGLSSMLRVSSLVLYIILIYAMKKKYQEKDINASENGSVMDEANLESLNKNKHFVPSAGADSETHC

primary rat hepatocytes [6] = system: primary rat hepatocytes
[7] = solubility in physiological saline; assay type: physicochemical
HEK 293 cells = assay: toxicity for HEK 293 cells with and without OATP1B1/B3 overexpression; settings: not shown
primary rat hepatocytes [8] = assay type: cell-based; settings: hepatocytes incubated for 96 hours
Description: as §1

OATP1B1 [9] = molecular target: T3, OATP1B1; remark: listed apart in the source
Target sequence in this assay (Q9Y6L6 whole entry): as above

Oatp1b2 [10] = molecular target: T1, Oatp1b2; remark: listed apart in the source
[11] = molecular target: rat hepatocyte channel Oatp1b2 (rat) (UniProt Q9QZX8); assay: cell-based or functional assay
OATP1B1 [12] = molecular target: T3, OATP1B1; assay type: cell-based
Target sequence in this assay (Q9Y6L6 whole entry, looked up): as the sequence (Q9Y6L6 whole entry) above

OATP1B3 [13] = molecular target: T2, OATP1B3; settings: Gui et al. 2010; cited from earlier work

T2 sequence (Q9NPD5 whole entry): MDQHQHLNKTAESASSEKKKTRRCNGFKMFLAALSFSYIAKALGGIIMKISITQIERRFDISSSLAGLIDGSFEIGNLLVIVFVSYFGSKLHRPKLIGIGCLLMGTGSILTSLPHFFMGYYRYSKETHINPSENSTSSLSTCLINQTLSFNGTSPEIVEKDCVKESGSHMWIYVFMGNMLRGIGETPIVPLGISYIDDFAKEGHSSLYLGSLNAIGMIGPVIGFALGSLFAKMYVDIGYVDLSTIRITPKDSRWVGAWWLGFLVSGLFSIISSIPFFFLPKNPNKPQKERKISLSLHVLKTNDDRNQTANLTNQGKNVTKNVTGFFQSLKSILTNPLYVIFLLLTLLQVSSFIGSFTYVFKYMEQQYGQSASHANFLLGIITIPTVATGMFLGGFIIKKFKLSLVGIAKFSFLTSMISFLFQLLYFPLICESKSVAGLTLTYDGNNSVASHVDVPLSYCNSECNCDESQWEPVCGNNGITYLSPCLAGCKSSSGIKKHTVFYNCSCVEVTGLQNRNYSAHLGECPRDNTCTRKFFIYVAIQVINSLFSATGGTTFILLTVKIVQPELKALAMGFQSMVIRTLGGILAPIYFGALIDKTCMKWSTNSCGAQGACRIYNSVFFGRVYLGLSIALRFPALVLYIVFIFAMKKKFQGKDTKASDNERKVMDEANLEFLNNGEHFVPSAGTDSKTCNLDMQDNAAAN

## CC(C)[C@@H]1NC(=O)[C@@H]2CCCN2C(=O)[C@@H](CCO)NC(=O)C(Cc2ccc(O)cc2)NC(=O)C(Cc2ccc(O)cc2)N=CC(Cc2ccc(O)cc2)NC(=O)[C@@H]2C[C@H](C)CN2C1=O (stereo partly drawn) [Ncp-M1] (cyclo([X1][ξY][d(hSer)]PV[Pro(4S-Me)]))
Primary rat hepatocytes [1]
  inherent toxicity (morphology, growth, mitochondrial dehydrogenase activity of hepatocytes): no apparent inherent toxicity
  toxicity for primary rat hepatocytes: non-toxic
CaM-KII
  interference with intracellular steps of microcystin action (protein phosphatase inhibition, CaM-KII activation, ROS production, actin rearrangement): did not interfere
Oatp1b2 [2]
  Ki: 350 nM
OATP1B3 [3]
  Ki: 0.01063 nM
[4]; in solution, in particular acidic solutions
  stability in solution: degrade in solution
[4]; stored at -70°C
  stability on storage: non-stable
OATP1B1 [5]
  Ki: 1500 nM
Primary rat hepatocytes [6]
  hepatocyte uptake of microcystin and nodularin: blocks
[7]
  solubility in physiological saline: high solubility
HEK 293 cells
  toxicity for HEK 293 cells: non-toxic

## YYSPVPY [linear version of the same peptide, Tyr-Tyr-Ser-Pro-Val-Pro-Tyr]
OATP1B3 [3]
  potency compared with another peptide: considerably less potent

## O=C1OC(c2ccc(O)c(S(=O)(=O)O)c2)(c2ccc(O)c(S(=O)(=O)O)c2)c2c(Br)c(Br)c(Br)c(Br)c21 [BSP, bromosulfophthalein]
Primary rat hepatocytes [8]
  inherent toxicity (morphology, growth, mitochondrial dehydrogenase activity of hepatocytes): highly toxic

## CC(C)[C@@H]1NC(=O)[C@@H]2CCCN2C(=O)[C@H](CO)NC(=O)[C@H](Cc2ccc(O)cc2)NC(=O)[C@H](Cc2ccc(O)cc2)NC(=O)[C@H](Cc2ccc(O)cc2)NC(=O)[C@@H]2CCCN2C1=O [cyclic peptide of Seq. ID. No. 1, Tyr1-Tyr2-Ser-Pro-Val-Pro-Tyr7] (cyclo(PVPYYYS))
Primary rat hepatocytes [1]
  inherent toxicity (morphology, growth, mitochondrial dehydrogenase activity of hepatocytes): no apparent inherent toxicity
  toxicity for primary rat hepatocytes: non-toxic
OATP1B3 [3]
  inhibition of nodularin uptake / nodularin-induced apoptosis: inhibited completely
  potency compared with another peptide: lower potency than Ncp-M1
  preference for inhibition of OATP1B3: even higher OATP1 B3 preference
OATP1B1 [9]
  inhibition of nodularin uptake / nodularin-induced apoptosis: inhibited completely
  potency compared with another peptide: lower potency than Ncp-M1
[7]
  solubility in physiological saline: high solubility
Oatp1b2 [10]
  inhibition of nodularin uptake / nodularin-induced apoptosis: inhibited completely
  potency compared with another peptide: lower potency than Ncp-M1
HEK 293 cells
  toxicity for HEK 293 cells: non-toxic

## microcystin-LR (peptide)
[11]
  apparent KM for uptake, deduced from apoptosis of primary rat hepatocytes: 0.00027 nM

## C/C=C1/C(=O)N[C@@H](C(=O)O)[C@H](C)C(=O)N[C@@H](CCCNC(=N)N)C(=O)N[C@@H](/C=C/C(C)=C/[C@H](C)[C@H](Cc2ccccc2)OC)[C@H](C)C(=O)N[C@@H](C(=O)O)CCC(=O)N1C [nodularin]
OATP1B1 [12]
  Km: 32 nM

## C[C@H]1[C@H](C)CC[C@]2(C(=O)O)CC[C@]3(C)C(=CC[C@@H]4[C@@]5(C)CC[C@H](O)C(C)(C)[C@@H]5CC[C@]43C)[C@H]12 [ursolic acid]
OATP1B3 [13]
  selectivity for OATP1B3 compared to OATP1B1: ten times
